System: 186277-243-T-J2-PDC complex spheroid growth, % test/control
Test: Anticancer human tumor 186277-243-T-J2-PDC patient-derived colon adenocarcinoma cell line growth inhibition [Asc]
Conditions: for IC50: curve of first compound; for viability, T/C: stronger effect = lower value; active = viability on the fitted dose curve at most 10% of control; inactive = the rest
In short: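 Tumor cells were grown as multicellular spheroids with stromal HUVEC and mesenchymal stem cells and treated singly or in combination. Concentrations fell in half-log steps from the clinical Cmax, or from 10 microM where none was known.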
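Also: spheroids exposed to agents for 7 days.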
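For viability, T/C in this document: 100% = DMSO vehicle control wells.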

NC1CCC(NC2CC2c2ccccc2)CC1 (stereo not given) + CNC(C)C(=O)NC1CN(S(=O)(=O)c2cccc(S(=O)(=O)N3CCC4CCC(C(=O)NC(c5ccccc5)c5ccccc5)N4C(=O)C(NC(=O)C(C)NC)C3)c2)CCC2CCC(C(=O)NC(c3ccccc3)c3ccccc3)N2C1=O
inactive: viability, T/C (second compound 0.01 µM, first compound 0.000316 µM) 116% | viability, T/C (second compound 0.01 µM, first compound 0.001 µM) 105% | viability, T/C (second compound 0.01 µM, first compound 0.00316 µM) 109% | viability, T/C (second compound 0.01 µM, first compound 0.01 µM) 101% | viability, T/C (second compound 0.01 µM, first compound 0.0316 µM) 109% | viability, T/C (second compound 0.01 µM, first compound 0.1 µM) 106% | viability, T/C (second compound 0.0316 µM, first compound 0.000316 µM) 117% | viability, T/C (second compound 0.0316 µM, first compound 0.001 µM) 120% | viability, T/C (second compound 0.0316 µM, first compound 0.00316 µM) 111% | viability, T/C (second compound 0.0316 µM, first compound 0.01 µM) 114% | viability, T/C (second compound 0.0316 µM, first compound 0.0316 µM) 102% | viability, T/C (second compound 0.0316 µM, first compound 0.1 µM) 91.7% | viability, T/C (second compound 0.1 µM, first compound 0.000316 µM) 107% | viability, T/C (second compound 0.1 µM, first compound 0.001 µM) 115% | viability, T/C (second compound 0.1 µM, first compound 0.00316 µM) 121% | viability, T/C (second compound 0.1 µM, first compound 0.01 µM) 111% | viability, T/C (second compound 0.1 µM, first compound 0.0316 µM) 121% | viability, T/C (second compound 0.1 µM, first compound 0.1 µM) 109% | viability, T/C (second compound 0.316 µM, first compound 0.000316 µM) 121% | viability, T/C (second compound 0.316 µM, first compound 0.001 µM) 144% | viability, T/C (second compound 0.316 µM, first compound 0.00316 µM) 115% | viability, T/C (second compound 0.316 µM, first compound 0.01 µM) 106% | viability, T/C (second compound 0.316 µM, first compound 0.0316 µM) 111% | viability, T/C (second compound 0.316 µM, first compound 0.1 µM) 125% | viability, T/C (second compound 1 µM, first compound 0.000316 µM) 109% | viability, T/C (second compound 1 µM, first compound 0.001 µM) 119% | viability, T/C (second compound 1 µM, first compound 0.00316 µM) 125% | viability, T/C (second compound 1 µM, first compound 0.01 µM) 109% | viability, T/C (second compound 1 µM, first compound 0.0316 µM) 123% | viability, T/C (second compound 1 µM, first compound 0.1 µM) 121%
> 100 nM: IC50 (second compound 0.01 µM) | IC50 (second compound 0.0316 µM) | IC50 (second compound 0.1 µM) | IC50 (second compound 0.316 µM) | IC50 (second compound 1 µM)

CCN1C(C(=O)NC23CCC(C(=O)O)(CC2)CC3)C(c2cccc(Cl)c2F)C2(C(=O)Nc3cc(Cl)ccc32)C12CCCCC2 (stereo not given) + CNC(C)C(=O)NC1CN(S(=O)(=O)c2cccc(S(=O)(=O)N3CCC4CCC(C(=O)NC(c5ccccc5)c5ccccc5)N4C(=O)C(NC(=O)C(C)NC)C3)c2)CCC2CCC(C(=O)NC(c3ccccc3)c3ccccc3)N2C1=O
inactive: viability, T/C (second compound 0.01 µM, first compound 0.00949 µM) 116% | viability, T/C (second compound 0.01 µM, first compound 0.03 µM) 147% | viability, T/C (second compound 0.01 µM, first compound 0.0949 µM) 155% | viability, T/C (second compound 0.01 µM, first compound 0.3 µM) 115% | viability, T/C (second compound 0.01 µM, first compound 0.949 µM) 76.7% | viability, T/C (second compound 0.01 µM, first compound 3 µM) 53.6% | viability, T/C (second compound 0.0316 µM, first compound 0.00949 µM) 112% | viability, T/C (second compound 0.0316 µM, first compound 0.03 µM) 141% | viability, T/C (second compound 0.0316 µM, first compound 0.0949 µM) 152% | viability, T/C (second compound 0.0316 µM, first compound 0.3 µM) 125% | viability, T/C (second compound 0.0316 µM, first compound 0.949 µM) 84.5% | viability, T/C (second compound 0.0316 µM, first compound 3 µM) 46.3% | viability, T/C (second compound 0.1 µM, first compound 0.00949 µM) 131% | viability, T/C (second compound 0.1 µM, first compound 0.03 µM) 143% | viability, T/C (second compound 0.1 µM, first compound 0.0949 µM) 147% | viability, T/C (second compound 0.1 µM, first compound 0.3 µM) 122% | viability, T/C (second compound 0.1 µM, first compound 0.949 µM) 76.5% | viability, T/C (second compound 0.1 µM, first compound 3 µM) 48.2% | viability, T/C (second compound 0.316 µM, first compound 0.00949 µM) 129% | viability, T/C (second compound 0.316 µM, first compound 0.03 µM) 149% | viability, T/C (second compound 0.316 µM, first compound 0.0949 µM) 149% | viability, T/C (second compound 0.316 µM, first compound 0.3 µM) 118% | viability, T/C (second compound 0.316 µM, first compound 0.949 µM) 75% | viability, T/C (second compound 0.316 µM, first compound 3 µM) 46.8% | viability, T/C (second compound 1 µM, first compound 0.00949 µM) 134% | viability, T/C (second compound 1 µM, first compound 0.03 µM) 132% | viability, T/C (second compound 1 µM, first compound 0.0949 µM) 159% | viability, T/C (second compound 1 µM, first compound 0.3 µM) 118% | viability, T/C (second compound 1 µM, first compound 0.949 µM) 74.9% | viability, T/C (second compound 1 µM, first compound 3 µM) 43.5%
2690 nM: IC50 (second compound 0.0316 µM) | IC50 (second compound 0.316 µM)
2390 nM: IC50 (second compound 1 µM)
> 3000 nM: IC50 (second compound 0.01 µM)
2820 nM: IC50 (second compound 0.1 µM)

Source: PubChem BioAssay AID1963426 (Molecular Pharmacology Branch, DTP, NCI, 2024)
